Source: ChEMBL document CHEMBL1140817, “Synthesis and anti-HIV activity of 2'-fluorine modified nucleoside phosphonates: analogs of GS-9148” (Bioorg Med Chem Lett, 2008)

What was measured:
[1] = test system: Human immunodeficiency virus 1; assay: Antiviral activity against HIV1 3B in MT2 cells; assay type: functional, organism-based; conditions: Human immunodeficiency virus 1, 3B
[2] = Cytotoxicity against human MT2 cells; assay type: cell-based

EC50 [1] [µM]	SMILES	CC50 [2] [µM]
17.4	Nc1nc2c(ncn2[C@@H]2O[C@H](OCP(=O)(O)O)C=C2F)c(=O)[nH]1	700
> 300	O=c1[nH]cnc2c1ncn2[C@@H]1O[C@H](OCP(=O)(O)O)C=C1F	
3.6	C[C@H](Cn1cnc2c(N)ncnc21)OCP(=O)(O)O [TENOFOVIR ANHYDROUS]	> 1000

Continued, compound first:

SMILES	EC50 [1] [µM]	CC50 [2] [µM]
Nc1ncnc2c1ncn2[C@@H]1O[C@H](OCP(=O)(O)O)C[C@@H]1F	283	> 1000
Nc1nc(N)c2ncn([C@@H]3O[C@H](OCP(=O)(O)O)C=C3F)c2n1	> 300	
Nc1ncnc2c1ncn2[C@@H]1O[C@H](OCP(=O)(O)O)C=C1F [GS-9148]	12.3	> 1000
